Test results as given in patent US10206394B2, “Herbicidal compounds” (Syngenta Participations AG, priority 2014, dated 2019).
Read-outs that look alike come from different tables or passages of the source.

What was measured:
Experiment in all cases: Glasshouse assay for herbicidal activity (pre- and post-emergence), percentage phytotoxicity
Assay type in all cases: in vivo
[1] = tested on: Alopecurus myosuroides (ALOMY); conditions: Alopecurus myosuroides, Rate 250 g/ha, 100%=total damage, 0%=no damage
Summary of the method: (§1)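 Herbicide was applied to potted plants sown in standard soil, one day after sowing for PRE and after about 12 days for POST. Visual percentage damage ratings followed at 15 DAA (POST) and 20 DAA (PRE).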

Avena fatua (AVEFA) = conditions: Avena fatua, Rate 250 g/ha, 100%=total damage, 0%=no damage
Summary of the method: as §1

[2] = tested on: Echinochloa crus-galli (ECHCG); conditions: Echinochloa crus-galli, Rate 250 g/ha, 100%=total damage, 0%=no damage
Summary of the method: as §1

Lolium perenne (LOLPE) = conditions: Lolium perenne, Rate 250 g/ha, 100%=total damage, 0%=no damage
Summary of the method: as §1

[3] = post-emergence, 360 h, post-emergence, visual assessment 15 DAA, read-out: Post-emergence herbicidal activity (percentage phytotoxicity) ALOMY POST
[4] = pre-emergence, 480 h, pre-emergence, visual assessment 20 DAA, read-out: Pre-emergence herbicidal activity (percentage phytotoxicity) ALOMY PRE
[5] = post-emergence, 360 h, post-emergence, visual assessment 15 DAA, read-out: Post-emergence herbicidal activity (percentage phytotoxicity) AVEFA POST
[6] = pre-emergence, 480 h, pre-emergence, visual assessment 20 DAA, read-out: Pre-emergence herbicidal activity (percentage phytotoxicity) AVEFA PRE
[7] = post-emergence, 360 h, post-emergence, visual assessment 15 DAA, read-out: Post-emergence herbicidal activity (percentage phytotoxicity) ECHCG POST
[8] = pre-emergence, 480 h, pre-emergence, visual assessment 20 DAA, read-out: Pre-emergence herbicidal activity (percentage phytotoxicity) ECHCG PRE
[9] = post-emergence, 360 h, post-emergence, visual assessment 15 DAA, read-out: Post-emergence herbicidal activity (percentage phytotoxicity) LOLPE POST
[10] = pre-emergence, 480 h, pre-emergence, visual assessment 20 DAA, read-out: Pre-emergence herbicidal activity (percentage phytotoxicity) LOLPE PRE

Row | SMILES | pest or weed control at 250 g/ha [1, 3] | pest or weed control at 250 g/ha [1, 4] | pest or weed control at 250 g/ha (Avena fatua (AVEFA); [5]) | pest or weed control at 250 g/ha (Avena fatua (AVEFA); [6]) | pest or weed control at 250 g/ha [2, 7] | pest or weed control at 250 g/ha [2, 8] | pest or weed control at 250 g/ha (Lolium perenne (LOLPE); [9]) | pest or weed control at 250 g/ha (Lolium perenne (LOLPE); [10])
1 | Cc1cc(-c2ncc(Cl)cn2)cc(C)c1C1C(=O)CC(CC(=O)N(C)Cc2cccc(F)c2)C1=O (centres unmarked) [Compound B338] | 100% | 100% | 100% | 80% | 100% | 100% | 90% | 100%
2 | Cc1cc(-c2ncc(Cl)cn2)cc(C)c1C1C(=O)CC(CC(=O)NCc2cccc(Br)c2)C1=O (centres unmarked) [Compound B339] | 100% | 40% | 100% | 70% | 100% | 100% | 100% | 90%
3 | Cc1cc(-c2ncc(Cl)cn2)cc(C)c1C1C(=O)CC(CC(=O)NC(C)C)C1=O (centres unmarked) [Compound B340] | 100% | 100% | 100% | 100% | 100% | 100% | 100% | 100%
4 | C=C(C)CNC(=O)CC1CC(=O)C(c2c(C)cc(-c3ncc(Cl)cn3)cc2C)C1=O (centres unmarked) [Compound B341] | 100% | 100% | 100% | 80% | 100% | 100% | 100% | 80%
5 | Cc1cc(-c2ncc(Cl)cn2)cc(C)c1C1C(=O)CC(CC(=O)NCC2CC2)C1=O (centres unmarked) [Compound B342] | 100% | 100% | 100% | 90% | 100% | 100% | 100% | 100%
6 | C#CC(C)(C)NC(=O)CC1CC(=O)C(c2c(C)cc(-c3ncc(Cl)cn3)cc2C)C1=O (centres unmarked) [Compound B343] | 100% | 100% | 100% | 90% | 100% | 100% | 100% | 100%
7 | COCC(C)(C)NC(=O)CC1CC(=O)C(c2c(C)cc(-c3ncc(Cl)cn3)cc2C)C1=O (centres unmarked) [Compound B344] | 100% | 90% | 100% | 80% | 100% | 100% | 90% | 80%
8 | C=CC(C)NC(=O)CC1CC(=O)C(c2c(C)cc(-c3ncc(Cl)cn3)cc2C)C1=O (centres unmarked) [Compound B345] | 100% | 100% | 100% | 90% | 100% | 100% | 100% | 100%
9 | COCC(C)NC(=O)CC1CC(=O)C(c2c(C)cc(-c3ncc(Cl)cn3)cc2C)C1=O (centres unmarked) [Compound B346] | 100% | 100% | 100% | 90% | 100% | 100% | 100% | 100%
10 | CCN(C)C(=O)CC1CC(=O)C(c2c(C)cc(-c3ncc(Cl)cn3)cc2C)C1=O (centres unmarked) [Compound B347] | 100% | 100% | 100% | 100% | 100% | 100% | 100% | 100%
